“And” between values parts separate entries of the source, which are not always exact repeats. Equal values may be shown once.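 In this assay, cells in 96-well plates receive the compound at five concentrations for 48 hours. Endpoints are linearly interpolated between the surrounding concentrations. Here, GI50 denotes the concentration required for 50% inhibition of growth. TGI: concentration producing complete growth inhibition.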
Each compound was assayed on MDA-MB-468 breast (assay: growth of human tumour cells (NCI), 48 h).

Compared with `COc1cc(-c2csc(NC(=O)Nc3cc(C(F)(F)F)cc(C(F)(F)F)c3)n2)cc(OC)c1OC`, `COc1ccc2c(c1)CCc1[nH]nc(-c3cc(OC)c(OC)c(OC)c3)c1-2` is lower in GI50: 1330 nM for the first, < 10 nM for the second.

Compared with `O=C1NC(=O)C(c2ccc(Cl)cc2)=C1Nc1ccc(Cl)c(C(=O)O)c1`, `Cc1cc([N+](=O)[O-])ccc1NS(=O)(=O)c1cc(Cl)ccc1Cl` is lower in GI50: > 25000 nM for the first, 1660 nM for the second.

First: CCN(CC)CCCC(C)Nc1c2ccc(Cl)cc2nc2cc(OC)c(OC)cc12 (stereo unspecified)
Second: COc1cc2c(cc1OC)-c1ccc3cc4c(cc3c1N(CCN(C)C)C2)OCO4
The GI50 of the first is 6.2-fold higher: 1300 nM for the first, 210 nM for the second.

Going from `CCOc1ccc2nc(-c3cccc(OCC(=O)NC(C)C)c3)nc(Nc3ccc(-c4cn[nH]c4)cc3)c2c1` to `COc1ccc(-c2cn(-c3cccc(C(=O)/C=C/c4ccc(O)c(OC)c4)c3)c(=O)[nH]2)cc1`, the GI50 rises from 2310 nM to 5460 nM (2.4-fold).

First: CN[C@@H]1C[C@H]2O[C@@](C)([C@@H]1OC)n1c3ccccc3c3c4c(c5c6ccccc6n2c5c31)C(=O)N[C@H]4O
Second: COc1ccc2c3c(c4ccccc4cc13)C(=O)N(CCN(C)CCN)C2=O
The GI50 of the first is 16-fold lower: 17.6 nM for the first, 289 nM for the second.

Compared with `COc1ccc(/C(=N\NC(N)=S)c2ccc(Cl)cc2)cc1OC`, `CCO/C=N/C1=C(C#N)C(c2ccc(Cl)cc2)c2sc3c(C)cccc3c2O1` (stereo unspecified) is 4.9-fold lower in GI50: 1910 nM for the first, 386 nM for the second.

First: Cc1ccc(C(=O)/C(=C\c2ccc([N+](=O)[O-])cc2)S(=O)Cc2ccc(F)cc2)cc1 (stereo unspecified)
Second: O=[N+]([O-])c1ccc2nc(/C=C(\O)c3ccccc3)c(/C=C(\O)c3ccccc3)nc2c1
The GI50 of the first is 2.2-fold lower: 1850 nM for the first, 4000 nM for the second.

`Cc1cccc(Cl)c1NC(=O)c1cnc(Nc2cc(N3CCOCC3)cc(N3CCOCC3)c2)s1` and `Cn1c(/C=C(\C#N)c2cccc(C(F)(F)F)c2)nc2c(N3CCOCC3)nc(Cl)nc21` are within 1.5-fold of each other in GI50: 326 nM for the first, 432 nM for the second.

`O=C(O)c1ccc([S-])cc1.[Au+].c1ccc(CN2[CH-]N(Cc3ccccc3)C(c3ccccc3)=C2c2ccccc2)cc1` and `CSc1n(Cc2ccc3ccccc3c2)c(C)c[n+]1Cc1ccc2ccccc2c1` are within 1.5-fold of each other in GI50: 188 nM for the first, 211 nM for the second.

First: O=C(O)c1ccc2c3c(ncnc13)-c1ccccc1C2=O
Second: O=C(NCCN1CCC(O)CC1)c1cc2c(o1)C(=O)c1ccccc1C2=O
The GI50 of the first is higher: > 81900 nM for the first, 202 nM for the second.

`Nc1nc2ccc3[nH]ncc3c2c2c1CCCC2` and `Cn1cc(-c2nc(-c3c[nH]c4ccncc34)cs2)c2cc(F)ccc21` are within 1.5-fold of each other in GI50: 1460 nM for the first, 1400 nM for the second.

Going from `CCCOC(=O)N[C@H]1CCc2cc(OC)c(OC)c(OC)c2-c2ccc(SC)c(=O)cc21` to `COc1cc(C2c3cc4c(cc3OC3(OC)COC(=O)C23)OCO4)cc(OC)c1OC` (stereo unspecified), the GI50 rises from < 10 nM to 616 nM.

Compared with `CC1(C)N=C(N)N=C(N)N1c1ccc(CCc2ccc(Cl)cc2S(=O)(=O)F)c(Cl)c1`, `CC(C)(C)NCCC(O)c1cc2c(Cl)cc(Cl)cc2c2cc(C(F)(F)F)ccc12` (stereo unspecified) is 2.3-fold lower in GI50: 3590 nM for the first, 1590 nM for the second.

`COc1ccc(C2=Nc3c/c(=C\c4c(O)[nH]c5ccc(Cl)cc45)ccc3=N2)cc1` and `COc1ccc(-c2nn(-c3cccc(Cl)c3)cc2-c2c(C#N)c(=O)n3[nH]c(-c4ccc(C)cc4)nc3c2C#N)cc1` are within 1.5-fold of each other in GI50: 1480 nM for the first, 1050 nM for the second.

First: COc1ccc2c(c1)c1nc3cc(C)c(C)cc3nc1n2CCN(C)C
Second: COc1ccc(SC2c3ccc(C)cc3Oc3nc(N)c(C#N)c(N)c32)cc1 (stereo unspecified)
The GI50 of the first is 2.4-fold lower: 761 nM for the first, 1790 nM for the second.

Going from `Cc1cc(Nc2ccc(F)cc2)nc(N2CCN(c3ccnc4cc(Cl)ccc34)CC2)n1` to `C[n+]1c2ccccc2c(Nc2ccc(NS(=O)(=O)CCCCN=C(N)N)cc2)c2ccc(N)cc21`, the GI50 falls from 2720 nM to 989 nM (2.8-fold).

Going from `N#Cc1ccc(C2C3=C(CCCC3=O)OC3=C2C(=O)c2ccccc2C3=O)cc1` (stereo unspecified) to `CN1C(=O)C(=Cc2cn(Cc3ccccc3)c3ccccc23)C(=O)N(C)C1=O`, the GI50 falls from 309 nM to 63.9 nM (4.8-fold).

`CCCCOC(=O)c1ccc(NC(=O)CCl)cc1` and `CCCC(=O)NC(c1cccnc1)c1cc(C(C)(C)C)c2cccnc2c1O` (stereo unspecified) are within 1.5-fold of each other in GI50: 1780 nM for the first, 2310 nM for the second.

First: COc1cc(F)cc([C@@H](CO)NC(=O)[C@@H](C)N2Cc3ccc(-c4nc(NC5CCOCC5)ncc4Cl)cc3C2=O)c1
Second: Oc1ccc2ccccc2c1C1NN=C(c2ccccc2)S1 (stereo unspecified)
The GI50 of the first is 3.4-fold higher: 1820 nM for the first, 536 nM for the second.

Going from `O=CC(Br)C(Br)c1ccccc1` (stereo unspecified) to `c1cncc(-c2nc3ccccc3s2)c1`, the GI50 rises from 1480 nM to > 100000 nM.

For `COc1ccc([I+]c2ccccc2)cc1`, the GI50 was 253 nM.

Compared with `COc1cc(-c2csc(NC(=O)Nc3cc(C(F)(F)F)cc(C(F)(F)F)c3)n2)cc(OC)c1OC`, `COc1ccc2c(c1)CCc1[nH]nc(-c3cc(OC)c(OC)c(OC)c3)c1-2` is lower in TGI: 9280 nM for the first, < 10 nM for the second.

Going from `O=C1NC(=O)C(c2ccc(Cl)cc2)=C1Nc1ccc(Cl)c(C(=O)O)c1` to `Cc1cc([N+](=O)[O-])ccc1NS(=O)(=O)c1cc(Cl)ccc1Cl`, the TGI falls from > 25000 nM to 7610 nM.

Compared with `CCN(CC)CCCC(C)Nc1c2ccc(Cl)cc2nc2cc(OC)c(OC)cc12` (stereo unspecified), `COc1cc2c(cc1OC)-c1ccc3cc4c(cc3c1N(CCN(C)C)C2)OCO4` is 3.7-fold lower in TGI: 2830 nM for the first, 762 nM for the second.

Compared with `CCOc1ccc2nc(-c3cccc(OCC(=O)NC(C)C)c3)nc(Nc3ccc(-c4cn[nH]c4)cc3)c2c1`, `COc1ccc(-c2cn(-c3cccc(C(=O)/C=C/c4ccc(O)c(OC)c4)c3)c(=O)[nH]2)cc1` is higher in TGI: 14900 nM for the first, > 100000 nM for the second.

Going from `CN[C@@H]1C[C@H]2O[C@@](C)([C@@H]1OC)n1c3ccccc3c3c4c(c5c6ccccc6n2c5c31)C(=O)N[C@H]4O` to `COc1ccc2c3c(c4ccccc4cc13)C(=O)N(CCN(C)CCN)C2=O`, the TGI rises from 105 nM to 1160 nM (11-fold).

Going from `COc1ccc(/C(=N\NC(N)=S)c2ccc(Cl)cc2)cc1OC` to `CCO/C=N/C1=C(C#N)C(c2ccc(Cl)cc2)c2sc3c(C)cccc3c2O1` (stereo unspecified), the TGI rises from 7990 nM to 14500 nM (1.8-fold).

First: Cc1ccc(C(=O)/C(=C\c2ccc([N+](=O)[O-])cc2)S(=O)Cc2ccc(F)cc2)cc1 (stereo unspecified)
Second: O=[N+]([O-])c1ccc2nc(/C=C(\O)c3ccccc3)c(/C=C(\O)c3ccccc3)nc2c1
The TGI of the first is 17-fold lower: 3690 nM for the first, 61700 nM for the second.

Going from `Cc1cccc(Cl)c1NC(=O)c1cnc(Nc2cc(N3CCOCC3)cc(N3CCOCC3)c2)s1` to `Cn1c(/C=C(\C#N)c2cccc(C(F)(F)F)c2)nc2c(N3CCOCC3)nc(Cl)nc21`, the TGI falls from 2770 nM to 1630 nM (1.7-fold).

Going from `O=C(O)c1ccc([S-])cc1.[Au+].c1ccc(CN2[CH-]N(Cc3ccccc3)C(c3ccccc3)=C2c2ccccc2)cc1` to `c1ccc(Nn2c(CCCCCCCCc3nnc(COc4ccccc4)n3Nc3ccccc3)nnc2COc2ccccc2)cc1`, the TGI rises from 873 nM to > 300000 nM.

Compared with `O=C(O)c1ccc2c3c(ncnc13)-c1ccccc1C2=O`, `O=C(NCCN1CCC(O)CC1)c1cc2c(o1)C(=O)c1ccccc1C2=O` is lower in TGI: > 100000 nM for the first, 559 nM for the second.

`Nc1nc2ccc3[nH]ncc3c2c2c1CCCC2` and `Cn1cc(-c2nc(-c3c[nH]c4ccncc34)cs2)c2cc(F)ccc21` are within 1.5-fold of each other in TGI: 2920 nM for the first, 2890 nM for the second.

Compared with `CCCOC(=O)N[C@H]1CCc2cc(OC)c(OC)c(OC)c2-c2ccc(SC)c(=O)cc21`, `COc1cc(C2c3cc4c(cc3OC3(OC)COC(=O)C23)OCO4)cc(OC)c1OC` (stereo unspecified) is 6.6-fold higher in TGI: 13500 nM for the first, 88600 nM for the second.

Going from `CC1(C)N=C(N)N=C(N)N1c1ccc(CCc2ccc(Cl)cc2S(=O)(=O)F)c(Cl)c1` to `CC(C)(C)NCCC(O)c1cc2c(Cl)cc(Cl)cc2c2cc(C(F)(F)F)ccc12` (stereo unspecified), the TGI falls from 24200 nM to 3060 nM (7.9-fold).

`COc1ccc(C2=Nc3c/c(=C\c4c(O)[nH]c5ccc(Cl)cc45)ccc3=N2)cc1` and `COc1ccc(-c2nn(-c3cccc(Cl)c3)cc2-c2c(C#N)c(=O)n3[nH]c(-c4ccc(C)cc4)nc3c2C#N)cc1` are within 1.5-fold of each other in TGI: 3070 nM for the first, 2880 nM for the second.

`COc1ccc2c(c1)c1nc3cc(C)c(C)cc3nc1n2CCN(C)C` and `COc1ccc(SC2c3ccc(C)cc3Oc3nc(N)c(C#N)c(N)c32)cc1` (stereo unspecified) are within 1.5-fold of each other in TGI: 2450 nM for the first, 3600 nM for the second.

Compared with `Cc1cc(Nc2ccc(F)cc2)nc(N2CCN(c3ccnc4cc(Cl)ccc34)CC2)n1`, `C[n+]1c2ccccc2c(Nc2ccc(NS(=O)(=O)CCCCN=C(N)N)cc2)c2ccc(N)cc21` is lower in TGI: > 100000 nM for the first, 26100 nM for the second.

Going from `N#Cc1ccc(C2C3=C(CCCC3=O)OC3=C2C(=O)c2ccccc2C3=O)cc1` (stereo unspecified) to `CN1C(=O)C(=Cc2cn(Cc3ccccc3)c3ccccc23)C(=O)N(C)C1=O`, the TGI falls from 867 nM to 158 nM (5.5-fold).

Going from `CCCCOC(=O)c1ccc(NC(=O)CCl)cc1` to `CCCC(=O)NC(c1cccnc1)c1cc(C(C)(C)C)c2cccnc2c1O` (stereo unspecified), the TGI rises from 4080 nM to 8980 nM (2.2-fold).

First: CSc1n(Cc2ccc3ccccc3c2)c(C)c[n+]1Cc1ccc2ccccc2c1
Second: Oc1ccc2ccccc2c1C1NN=C(c2ccccc2)S1 (stereo unspecified)
The TGI of the first is 5.9-fold lower: 672 nM for the first, 3940 nM for the second.

First: COc1cc(F)cc([C@@H](CO)NC(=O)[C@@H](C)N2Cc3ccc(-c4nc(NC5CCOCC5)ncc4Cl)cc3C2=O)c1
Second: COc1ccc([I+]c2ccccc2)cc1
The TGI of the first is lower: 17000 nM for the first, > 36600 nM for the second.

Compared with `O=CC(Br)C(Br)c1ccccc1` (stereo unspecified), `c1cncc(-c2nc3ccccc3s2)c1` is higher in TGI: 3650 nM for the first, > 100000 nM for the second.

In the case of `CN1CCC(C(=O)Nc2n[nH]c3nc(-c4ccc(O)cc4)c(Br)cc23)CC1`, the GI50 is reported as 486 nM and 779 nM.
For `c1ccc(Nn2c(CCCCCCCCc3nnc(COc4ccccc4)n3Nc3ccccc3)nnc2COc2ccccc2)cc1`, the GI50 was 12800 nM and 61600 nM.

For `CN1CCC(C(=O)Nc2n[nH]c3nc(-c4ccc(O)cc4)c(Br)cc23)CC1`, the TGI was 1410 nM and 2830 nM.
